Source: US20250101436A1, “APTAMERS AND SMALL MOLECULE LIGANDS” (MeiraGTx UK II Limited, priority 2021, published 2025)

Tested on: luciferase gene expression in HEK 293 cells in response to Comp. 004
Assay: Screen of riboswitch constructs with 12C6-1 variant aptamers (libraries N1-N5) against Comp. 004, luciferase in HEK 293 cells
Format: cell-based, human
Details: library N2 variant aptamers (J2-3, P3-J3-3a, J3a-2 randomized) of 12C6-1 in riboswitch constructs; in response to Comp. 004; HEK 293 cells
Description: Cloning of riboswitch constructs containing 12C6-1 variant aptamer sequences: 12C6-1 aptamer sequence was used as template, and nucleobases were randomized at certain position in the sequence. Aptamers incorporating random mutagenesis were synthesized by Integrated DNA Technologies, Inc. Golden Gate cloning strategy (New England Biolabs, NEB) was used to clone the synthesized aptamer sequences into intron-exon-intron cassette to replace the 12C6-1 aptamer in the Luci-12C6-1 riboswitch construct, generating riboswitch constructs containing variant aptamer sequences.
To further improve the riboswitch activity in responding to Comp. 004 and related compounds, the aptamer sequence 12C6-1 was subject to mutagenesis to generate aptamer variants, and the riboswitches containing the variant aptamers were screened against Comp. 004 for the ones that have improved dynamic range of induced gene expression (the fold induction), in comparison with the fold induction by parental riboswitch construct Luci-12C6-1. […] These loop or junction region alone or together with stem region in proximity were chosen for random mutagenesis to generate riboswitches with re-engineered aptamer sequences with improved activity.
Five aptamer libraries N1, N2, N3, N4 and N5 were generated by randomizing nucleotides at positions in J2-4, J2-3/J3-3a/J3a-2/P3, L3a, J4-5/J5-4/P4 and L5 regions of the parent 12C6-1 sequence, respectively (see FIGS. 3a and 3b). Single bacterial colonies were picked and plasmids containing variant riboswitch constructs were screened in HEK 293 cells for improved gene regulation activity in response to 25 µM Comp. 004 as compared to parent riboswitch construct Luci-12C6-1.

Q: With “N2_2B7 (CTGGGGAGTCCTTCATGC; chemistry not given here)” as the substance, how does the “Fold (induction of luciferase gene expression)” value (shortened to “Fold”) read?
A: 1.2 fold

Q: “N2_2B8 (CTGGGGAGTCCTTCATGC; chemistry not given here)” was tested. Which “Fold” value did it give?
A: 1.1 fold

Q: How did the “Fold” value turn out when “N2_2B9 (CTGGGGAGTCCTTCATGC; chemistry not given here)” was run?
A: 1.1 fold

Q: Which “Fold” value does the source give for “N2_2B10 (CTGGGGAGTCCTTCATGC; chemistry not given here)” here?
A: 1.1 fold

Q: For “N2_2B11 (CTGGGGAGTCCTTCATGC; chemistry not given here)”, which “Fold” value is on record?
A: 1.2 fold

Q: Which “Fold” value does the source give for “N2_2B12 (CTGGGGAGTCCTTCATGC; chemistry not given here)” here?
A: 1.0 fold

Q: For “N2_2C1 (CTGGGGAGTCCTTCATGC; chemistry not given here)”, which “Fold” value is on record?
A: 1.1 fold

Q: With “N2_2C2 (CTGGGGAGTCCTTCATGC; chemistry not given here)” as the substance, how does the “Fold” value read?
A: 0.8 fold

Q: “N2_2C3 (CTGGGGAGTCCTTCATGC; chemistry not given here)” was tested. Which “Fold” value did it give?
A: 1.1 fold

Q: How did the “Fold” value turn out when “N2_2C4 (CTGGGGAGTCCTTCATGC; chemistry not given here)” was run?
A: 2.0 fold

Q: Which “Fold” value does the source give for “N2_2C5 (CTGGGGAGTCCTTCATGC; chemistry not given here)” here?
A: 1.0 fold

Q: “N2_2C6 (CTGGGGAGTCCTTCATGC; chemistry not given here)” was tested. Which “Fold” value did it give?
A: 0.9 fold

Q: With “N2_2C7 (CTGGGGAGTCCTTCATGC; chemistry not given here)” as the substance, how does the “Fold” value read?
A: 0.8 fold

Q: Which “Fold” value does the source give for “N2_2C8 (CTGGGGAGTCCTTCATGC; chemistry not given here)” here?
A: 0.9 fold

Q: “N2_2C9 (CTGGGGAGTCCTTCATGC; chemistry not given here)” was tested. Which “Fold” value did it give?
A: 1.2 fold

Q: How did the “Fold” value turn out when “N2_2C10 (CTGGGGAGTCCTTCATGC; chemistry not given here)” was run?
A: 1.2 fold

Q: “N2_2C12 (CTGGGGAGTCCTTCATGC; chemistry not given here)” was tested. Which “Fold” value did it give?
A: 1.1 fold

Q: Which “Fold” value does the source give for “N2_2D1 (CTGGGGAGTCCTTCATGC; chemistry not given here)” here?
A: 1.1 fold

Q: “N2_2D2 (DNA CTGGGGAGTCCTTCATGC; chemistry not given here)” was tested. Which “Fold” value did it give?
A: 1.1 fold

Q: “N2_2D3 (DNA CTGGGGAGTCCTTCATGC; chemistry not given here)” was tested. Which “Fold” value did it give?
A: 0.9 fold

Q: With “N2_2D4 (DNA CTGGGGAGTCCTTCATGC; chemistry not given here)” as the substance, how does the “Fold” value read?
A: 0.8 fold

Q: With “N2_2D5 (DNA CTGGGGAGTCCTTCATGC; chemistry not given here)” as the substance, how does the “Fold” value read?
A: 0.6 fold

Q: Which “Fold” value does the source give for “N2_2D6 (DNA CTGGGGAGTCCTTCATGC; chemistry not given here)” here?
A: 1.1 fold

Q: Which “Fold” value does the source give for “N2_2D7 (DNA CTGGGGAGTCCTTCATGC; chemistry not given here)” here?
A: 1.0 fold

Q: Which “Fold” value does the source give for “N2_2D8 (DNA CTGGGGAGTCCTTCATGC; chemistry not given here)” here?
A: 1.1 fold

Q: “N2_2D9 (DNA CTGGGGAGTCCTTCATGC; chemistry not given here)” was tested. Which “Fold” value did it give?
A: 1.0 fold

Q: For “N2_2D10 (DNA CTGGGGAGTCCTTCATGC; chemistry not given here)”, which “Fold” value is on record?
A: 1.2 fold

Q: For “N2_2D11 (DNA CTGGGGAGTCCTTCATGC; chemistry not given here)”, which “Fold” value is on record?
A: 1.3 fold

Q: How did the “Fold” value turn out when “N2_2D12 (DNA CTGGGGAGTCCTTCATGC; chemistry not given here)” was run?
A: 1.1 fold

Q: How did the “Fold” value turn out when “N2_2E2 (DNA CTGGGGAGTCCTTCATGC; chemistry not given here)” was run?
A: 1.1 fold

Q: How did the “Fold” value turn out when “N2_2E3 (DNA CTGGGGAGTCCTTCATGC; chemistry not given here)” was run?
A: 1.3 fold

Q: Which “Fold” value does the source give for “N2_2E4 (DNA CTGGGGAGTCCTTCATGC; chemistry not given here)” here?
A: 0.7 fold

Q: For “N2_2E5 (DNA CTGGGGAGTCCTTCATGC; chemistry not given here)”, which “Fold” value is on record?
A: 1.2 fold

Q: With “N2_2E6 (DNA CTGGGGAGTCCTTCATGC; chemistry not given here)” as the substance, how does the “Fold” value read?
A: 0.9 fold

Q: Which “Fold” value does the source give for “N2_2E7 (DNA CTGGGGAGTCCTTCATGC; chemistry not given here)” here?
A: 1.1 fold

Q: How did the “Fold” value turn out when “N2_2E8 (DNA CTGGGGAGTCCTTCATGC; chemistry not given here)” was run?
A: 0.9 fold

Q: For “N2_2E10 (DNA CTGGGGAGTCCTTCATGC; chemistry not given here)”, which “Fold” value is on record?
A: 1.2 fold

Q: “N2_2E12 (DNA CTGGGGAGTCCTTCATGC; chemistry not given here)” was tested. Which “Fold” value did it give?
A: 1.3 fold

Q: For “N2_2F1 (DNA CTGGGGAGTCCTTCATGC; chemistry not given here)”, which “Fold” value is on record?
A: 1.1 fold

Q: For “N2_2F2 (DNA CTGGGGAGTCCTTCATGC; chemistry not given here)”, which “Fold” value is on record?
A: 1.0 fold

Q: With “N2_2F3 (DNA CTGGGGAGTCCTTCATGC; chemistry not given here)” as the substance, how does the “Fold” value read?
A: 0.9 fold

Q: How did the “Fold” value turn out when “N2_2F4 (DNA CTGGGGAGTCCTTCATGC; chemistry not given here)” was run?
A: 1.2 fold

Q: Which “Fold” value does the source give for “N2_2F6 (DNA CTGGGGAGTCCTTCATGC; chemistry not given here)” here?
A: 1.0 fold

Q: How did the “Fold” value turn out when “N2_2F7 (DNA CTGGGGAGTCCTTCATGC; chemistry not given here)” was run?
A: 1.0 fold

Q: How did the “Fold” value turn out when “N2_2F8 (DNA CTGGGGAGTCCTTCATGC; chemistry not given here)” was run?
A: 1.0 fold

Q: With “N2_2F10 (DNA CTGGGGAGTCCTTCATGC; chemistry not given here)” as the substance, how does the “Fold” value read?
A: 1.1 fold

Q: Which “Fold” value does the source give for “N2_2F11 (DNA CTGGGGAGTCCTTCATGC; chemistry not given here)” here?
A: 1.1 fold

Q: For “N2_2F12 (DNA CTGGGGAGTCCTTCATGC; chemistry not given here)”, which “Fold” value is on record?
A: 1.0 fold

Q: Which “Fold” value does the source give for “N2_2G1 (DNA CTGGGGAGTCCTTCATGC; chemistry not given here)” here?
A: 1.7 fold

Q: How did the “Fold” value turn out when “N2_2G2 (DNA CTGGGGAGTCCTTCATGC; chemistry not given here)” was run?
A: 1.3 fold

Q: How did the “Fold” value turn out when “N2_2G3 (DNA CTGGGGAGTCCTTCATGC; chemistry not given here)” was run?
A: 1.1 fold

Q: With “N2_2G4 (DNA CTGGGGAGTCCTTCATGC; chemistry not given here)” as the substance, how does the “Fold” value read?
A: 1.1 fold

Q: Which “Fold” value does the source give for “N2_2G5 (DNA CTGGGGAGTCCTTCATGC; chemistry not given here)” here?
A: 1.0 fold

Q: With “N2_2G6 (DNA CTGGGGAGTCCTTCATGC; chemistry not given here)” as the substance, how does the “Fold” value read?
A: 1.1 fold

Q: For “N2_2G7 (DNA CTGGGGAGTCCTTCATGC; chemistry not given here)”, which “Fold” value is on record?
A: 1.0 fold

Q: With “N2_2G8 (DNA CTGGGGAGTCCTTCATGC; chemistry not given here)” as the substance, how does the “Fold” value read?
A: 1.1 fold

Q: With “N2_2G9 (CTGGGGAGTCCTTCATGC; chemistry not given here)” as the substance, how does the “Fold” value read?
A: 1.3 fold

Q: How did the “Fold” value turn out when “N2_2G10 (DNA CTGGGGAGTCCTTCATGC; chemistry not given here)” was run?
A: 1.0 fold

Q: With “N2_2G11 (DNA CTGGGGAGTCCTTCATGC; chemistry not given here)” as the substance, how does the “Fold” value read?
A: 0.9 fold

Q: How did the “Fold” value turn out when “N2_2H1 (CTGGGGAGTCCTTCATGC; chemistry not given here)” was run?
A: 1.1 fold

Q: Which “Fold” value does the source give for “N2_2H2 (CTGGGGAGTCCTTCATGC; chemistry not given here)” here?
A: 0.8 fold

Q: How did the “Fold” value turn out when “N2_2H3 (CTGGGGAGTCCTTCATGC; chemistry not given here)” was run?
A: 1.0 fold

Q: Which “Fold” value does the source give for “N2_2H4 (CTGGGGAGTCCTTCATGC; chemistry not given here)” here?
A: 1.0 fold
